Common to all, as to assay: growth of human tumour cells (NCI), 48 h
Test [1] has as its system M19-MEL.
The test system of test [2] is NCI/ADR-RES.
For test [3], the system named is RXF 631.
Test [4] concerns MDA-MB-231.
For test [5], the system named is MDA-MB-435.
The test system of test [6] is MDA-N.
The test system of test [7] is T47D.
The subject of test [8] is BT-549.

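In this assay, cells in 96-well plates receive the compound at five concentrations for 48 hours. Endpoints are linearly interpolated between the surrounding concentrations. GI50 is the concentration that inhibits growth by half.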 Active and inactive are the calls of the source. No stated cut-off is given here; in the data, active = GI50 up to about 1.1 µM and inactive = higher.

Regarding `C/C(=N/NC(N)=S)c1ccc2ccccc2c1`, the GI50 in test [1] is 9.79 µM (inactive).

Take `C=CCCCCCCCCC(=O)O` [UNDECYLENIC ACID]: the results for the GI50 in test [2] and in test [1] were 172 µM (inactive) and 149 µM (inactive), respectively.

With `CCOc1ccc(NC(=O)C(=O)CC(=O)c2sc(NNC(C)=O)nc2C)cc1`, the GI50 in test [3] and in test [1] was > 100 µM (inactive) throughout.

Turning to `COc1ccc(CN2C(=O)C(=O)N(C)C2=O)c2ccccc12`, the GI50 in test [2] was > 10 µM (inactive); in test [4] it was > 10 µM (inactive); in test [5], > 10 µM (inactive); in test [6] it was 7.06 µM (inactive); in test [7], > 10 µM (inactive).

With `CC(=O)OCc1nnn2c1CCC2`, in test [1], the GI50 is > 100 µM (inactive).

For the compound `CN(Cc1cnc2nc(N)nc(N)c2n1)c1ccc(C(=O)NC(CCC(=O)O)C(=O)O)cc1C(F)(F)F` (stereo unspecified), the GI50 in test [2] is < 0.01 µM (active); in test [4], > 23.1 µM (inactive); in test [5], < 0.01 µM (active); in test [7], > 100 µM (inactive).

`COc1ccc2c(c1)C(=O)/C(=C/c1ccccc1)C2`: the GI50 is 24.7 µM (inactive) in test [2], 63.2 µM (inactive) in test [5], 39 µM (inactive) in test [6] and 27.2 µM (inactive) in test [8].

As for `O=C1C=C(C2OC(CO)C(O)C2O)C(=O)N1` (stereo unspecified), the GI50 in test [2] and in test [1] was > 100 µM (inactive) each time.

Source of the values: ChEMBL document CHEMBL1201862, “PubChem BioAssay data set” (2004).
